System: hematopoietic progenitor cells induced from iPS cells or ES cells
Test: Induction of CD4/CD8 double-positive T cells from hematopoietic progenitor cells induced from pluripotent stem cells (flow cytometry)
Type: cell-based, human
Conditions: TKT3v 1-7 line; medium containing SB203580 alone or SDF-1α alone vs neither; FIG. 5
Experimental: On an ultralow-adhesion-treated 6-well plate (CORNING: #3471). TkT3V1-7. Ffl-01, Ffl-14, or KhES-3 was plated at 3×10^5 to 6×10^5 cells/well (Day 0), and the cells were cultured under hypoxic conditions (5% O2) for five days in EB medium (StemPro34 supplemented with 10 μg/ml human insulin, 5.5 μg/ml human transferrin, 5 ng/ml sodium selenite, 2 mM L-glutamine, […] α-monothioglycerol, and 50 μg/ml ascorbic acid) supplemented with 10 ng/ml BMP4, 5 ng/ml bFGF, 15 ng/ml VEGF, and 2 μM SB431542 (Day 5).
Subsequently, 50 ng/ml SCF, 30 ng/ml TPO, and 10 ng/ml Flt3L were added, and additional culture was performed for 5 to 9 days (up to Day 14).

Substance	induction of CD4/CD8 double-positive T cells, each agent used alone
SDF-1α	can be produced even when each of these was used alone
4-(4-fluorophenyl)-2-(4-methylsulfonylphenyl)-5-(4-pyridyl)-1H-imidazole [SB203580]	can be produced even when each of these was used alone
